{"source": "patent US20130316015A1", "about": "“Methods for Repairing Cartilage” (MOUNT SINAI HOSPITAL, priority 2011, published 2013)", "system": "full thickness chondrocytes", "experiment": "In vitro-formed cartilage on membrane inserts: DNA, GAG and collagen contents", "assay_type": "cell-based, calves", "protocol": "Membrane inserts (Millicell-CM®, Millipore Corp., Bedford, Mass., USA) were coated with type II collagen (0.5 mg/ml in 0.1N acetic acid; Sigma Chemical Co., St. Louis, Mo., USA) and dried overnight. The membrane inserts were UV sterilized for 30 minutes and soaked in Ham's F12 for 30 minutes prior to cell culturing.\nCartilage was aseptically excised from the full thickness of metacarpal-phalangeal articular cartilage from 9 to 12 months old calves within 24 hours of death as previously described. For the experiment investigating the response of chondrocytes zonal subpopulations to inorganic polyphosphate, cartilage was excised as the superficial-mid zone (top 70%) and the deep-zone (bottom 30%). Chondrocytes were harvested from the tissue by sequential enzymatic digestion (0.5% protease (Sigma Chemical Co., St. Louis, Mo., USA) for 2 hours followed by 0.1% collagenase (Roche Diagnostics GmbH, Mannheim, Germany) overnight). The cells were then seeded on top of membrane inserts (1×10^6 cells per construct) in Ham's F-12 supplemented with 5% fetal bovine serum (FBS) (HyClone, Logan, Utah, USA) and incubated at 37° C. in an atmosphere characterized by 95% relative humidity and 5% CO2. On day 5, the serum concentration was changed to 20% and supplemented with ascorbic acid (100 μg/ml, Sigma Chemical Co., St. Louis, Mo., USA). At this time, cultures were incubated in the presence or absence of various concentrations of sodium phosphate glasses (inorganic polyphosphate; Sigma Chemical Co., St. Louis, Mo., USA) or sodium phosphate buffer. The concentrations of inorganic polyphosphate utilized for each experiment are calculated based on the phosphate content. Cultures were grown for up to 4 weeks following initiation of the inorganic polyphosphate treatment. […]\nIn vitro and ex vivo-cultured cartilage tissues were harvested and washed twice in PBS. […] The fluorescence was visualized with a Zeiss Axioplan epifluorescence microscope using a wide pass DAPI filter. […]\nCartilage tissues were digested with papain (Sigma Chemical Co., St. Louis, Mo., USA; 40 μg·ml^−1) in digestion buffer (20 mM ammonium acetate, 1 mM EDTA and 2 mM DTT) for 48 hours at 65° C. […] The DNA content was assessed using the Hoechst 33258 dye (Polysciences Inc., Washington, Pa., USA) binding assay and fluorometry (emission wavelength: 458 nm; excitation wavelength: 365 nm). […]\nThe proteoglycan and collagen contents of cartilage tissues were also measured from aliquots of the papain digest. The proteoglycan content was estimated by quantifying the amount of sulphated GAG using the dimethylmethylene blue dye (Polysciences Inc., Washington, Pa., USA) binding assay and quantifying the colour spectrophotometrically at 525 nm. […] The collagen content was estimated by quantifying the hydroxyproline. […]", "key": {"[1]": {"settings": "1 mM, 2 weeks in culture, normalized to DNA content, mean ± SEM"}}, "data": [{"smiles": "O=P(O)(O)O", "note": "[Phosphate, sodium phosphate]", "values": [{"measurement": "DNA Content", "setting": "1 mM, 2 weeks in culture, mean ± SEM", "result": "8.5 ± 0.92", "unit": "µg"}, {"measurement": "Collagen Content", "setting": "[1]", "result": "105.3 ± 9.5 % of control"}, {"measurement": "GAG Content", "setting": "[1]", "result": "112.5 ± 14.8 % of control"}, {"measurement": "DNA, GAG and collagen contents compared to non-supplemented medium", "setting": "concentrations equivalent to those used for polyphosphate, 2 weeks", "result": "did not significantly alter"}]}]}
